Measurements as given in US20250034186A1, “ANTIVIRAL COMPOUNDS” (priority 2020, published 2025).

Tests used:
RSV strain A2 = experiment: RSV HEp-2 EC50, infectious cytopathic cell protection assay; format: cell-based; details: human respiratory syncytial virus, 96 h; RSV A2 in HEp-2 cells, 4 days, Cell TiterGlo
Description: Antiviral activity against RSV is determined using an infectious cytopathic cell protection assay in HEp-2 cells. In this assay, compounds inhibiting viral infection and/or replication produce a cytoprotective effect against the virus-induced cell killing that can be quantified using a cell viability reagent. The techniques used here are novel adaptations of methods described in published literature (Chapman et al., Antimicrob Agents Chemother. 2007, 51(9):3346-53.).
HEp-2 cells are obtained from ATCC (Manassas, VI) and maintained in MEM media supplemented with 10% fetal bovine serum and penicillin/streptomycin. Cells are passaged twice a week and kept at subconfluent stage. Commercial stock of RSV strain A2 (Advanced Biotechnologies, Columbia, MD) is titered before compound testing to determine the appropriate dilution of the virus stock that generates desirable cytopathic effect in HEp-2 cells.
For antiviral tests, HEp-2 cells are grown in large cell culture flasks to near confluency but not fully so. The compounds to be tested are prediluted in DMSO in 384-well compound dilution plates, either in an 8 or 40 sample per plate standardized dose response format. 3-fold serial dilution increments of each test compound are prepared in the plates and test samples are transferred via acoustic transfer apparatus (Echo, Labcyte) at 100 nL per well into cell culture assay 384-well plates. Each compound dilution is transferred in single or quadruplicate samples into dry assay plates, which are stored until assay is ready to go. The positive and negative controls are laid out in opposite on ends of the plate in vertical blocks (1 column).
Subsequently, an infectious mixture is prepared using an appropriate dilution of virus stock previously determined by titration with cells at a density of 50,000/mL and 20 μL/well is added to test plates w/compounds via automation (uFlow, Biotek). Each plate includes negative and positive controls (16 replicates each) to create 0% and 100% virus inhibition standards, respectively. Following the infection with RSV, testing plates are incubated for 4 days in a 37° C. cell culture incubator. After the incubation, a cell viability reagent, Cell TiterGlo (Promega, Madison, WI) is added to the assay plates, which are incubated briefly, and a luminescent readout is measured (Envision, Perkin Elmer) in all the assay plates. The RSV-induced cytopathic effect, percentage inhibition, is determined from the levels of remaining cell viability. […] Various potent anti-RSV tool compounds are used as positive controls for antiviral activity.

RSV A2 = experiment: RSV NHBE EC50, RSV A2 antiviral assay; format: cell-based; details: human respiratory syncytial virus, 96 h; RSV A2 in NHBE cells, 4 days
Description: Normal human bronchial epithelial (NHBE) cells were purchased from Lonza (Walkersville, MD, Cat #CC-2540) and cultured in Bronchial Epithelial Growth Media (BEGM) (Lonza, Walkersville, MD, Cat #CC-3170). The cells were passaged 1-2 times per week to maintain <80% confluency. The NHBE cells were discarded after 6 passages in culture.
To conduct the RSV A2 antiviral assay, NHBE cells were plated in 96-well plates at a density of 7,500 cells per well in BEGM and allowed to attach overnight at 37° C. Following attachment, 100 μL of cell culture media was removed and 3-fold serially diluted compound was added using a Hewlett-Packard D300 Digital Dispenser. The final concentration of DMSO was normalized to 0.05%. Following compound addition, the NHBE cells were infected by the addition of 100 μL of RSV A2 at a titer of 1×10^4.5 tissue culture infectious doses/mL in BEGM and then incubated at 37° C. for 4 days. The NHBE cells were then allowed to equilibrate to 25° C. and cell viability was determined by removing 100 μL of culture medium and adding 100 μL of Cell-Titer Glo viability reagent. The mixtures were incubated for 10 minutes at 25° C., and the luminescence signal was quantified on an Envision luminescence plate reader.

HRV16 = HRV16 HeLa EC50; format: cell-based, human rhinovirus; details: Human rhinovirus sp., HRV16; H1-HeLa cells, 96 h, 33° C.
Description: H1-HeLa cells, cultured in complete DMEM medium containing 10% heat-inactivated FBS and 1% Penicillin/Streptomycin, were seeded in 96 well plates at 3000 cells/well one day prior to compound dosing and infection. The antiviral activity of each compound was measured in triplicate. Compounds were added directly to the cell cultures in serial 3-fold dilutions using the HP300 digital dispenser (Hewlett Packard, Palo Alto, CA) immediately prior to infection. The plates were transferred to BSL-2 containment and the appropriate dilution of virus stock, previously determined by titration and prepared in cell culture media, was added to test plates containing cells and serially diluted compounds. Each plate included 6 wells of infected untreated cells and 6 wells of uninfected cells that served as 0% and 100% virus inhibition control, respectively. Following the infection, test plates were incubated for 96 h in a tissue culture incubator set to 33° C./5% CO2. Following incubation, the H1-HeLa cells were removed from incubation and allowed to equilibrate to 25° C. Cell viability was determined by removing 100 μL of culture medium and adding 100 μL of Cell-Titer Glo viability reagent. The mixtures were incubated on a shaker for 10 minutes at 25° C., and the luminescence signal was quantified on an Envision luminescence plate reader.

HEp-2 cytotoxicity assay = format: cell-based; details: human, HEp-2 cells (uninfected), 4-5 days
Description: (§1) Cytotoxicity of the compound of Formula I and compounds 1, 2, and 6 was determined in uninfected cells using the cell viability reagent in a similar fashion as described before for other cell types (Cihlar et al., Antimicrob Agents Chemother. 2008, 52(2):655-65.). HEp-2 (1.5×10^3 cells/well) and MT-4 (2×10^3 cells/well) cells were plated in 384-well plates and incubated with the appropriate medium containing 3-fold serially diluted compound ranging from 15 nM to 100,000 nM. Cells were cultured for 4-5 days at 37° C. Following the incubation, the cells were allowed to equilibrate to 25° C., and cell viability was determined by adding Cell-Titer Glo viability reagent. The mixture was incubated for 10 min, and the luminescence signal was quantified using an Envision plate reader. Untreated cell and cells treated at 2 μM puromycin (Sigma, St. Louis, MO) serve as 100% and 0% cell viability control, respectively.

MT-4 cytotoxicity assay = format: cell-based; details: human, MT-4 cells (uninfected), 4-5 days, read-out: CC50 MT4
Description: as §1

[1] = Stability assay in human hepatic S9 fractions; format: in vitro ADME; details: 37° C., NADPH and UDPGA, read-out: Hum HepS9 t1/2
Description: For S9 stability, the compounds were incubated at 2 μM in cynomolgus monkey or human hepatic S9 fractions for up to 90 min at 37° C. in the presence of NADPH and UDPGA (Phase I and Phase II cofactor, Sigma-Aldrich). At desired time points following compound addition, samples were quenched with 9 volumes of an aqueous solution containing internal standard, 50% acetonitrile and 25% methanol. Sample plates were centrifuged at 3000 g for 30 min, and 10 μL of the resulting solution was analyzed by LC-MS/MS. Data (analyte to internal standard peak area ratio) were plotted on a semi log scale and fitted using an exponential fit. The half-life (T1/2) was determined assuming first order kinetics.

in vitro = in vitro ADME; details: human, plasma, 37° C., up to 4 h, read-out: Hum Plasma t1/2
Description: For plasma stability, the compounds were incubated at 2 μM in cynomolgus monkey or human plasma for up to 4 h at 37° C. At desired time points, an aliquot from the incubation was quenched by addition of 9 volumes of 100% acetonitrile supplemented with internal standard. Following the last collection, samples were centrifuged at 3000 g for 30 min and supernatants were transferred to a new plate containing an equal volume of water for analysis by liquid chromatography coupled to triple quadrupole mass spectrometry (LC-MS/MS). Data (analyte to internal standard peak area ratio) were plotted on a semi log scale and fitted using an exponential fit. The half-life (T1/2) was determined assuming first order kinetics.

HRV1a = experiment: HRV1A HeLa EC50; format: cell-based, human rhinovirus; details: Human rhinovirus sp., HRV1A, HeLa, 96 h, read-out: HRV1A HeLa EC50
Description: (§2) H1-HeLa cells, cultured in complete RPMI 1640 medium containing 10% heat-inactivated FBS and 1% Penicillin/Streptomycin, were seeded in 96 well plates at 5000 cells/well one day prior to compound dosing and infection. The antiviral activity of each compound was measured in triplicate. Compounds were added directly to the cell cultures in serial 3-fold dilutions using the HP300 digital dispenser (Hewlett Packard, Palo Alto, CA) immediately prior to infection. The plates were transferred to BSL-2 containment and 100 μL of 1/4000 dilution of HRV1a virus stock was added to each well containing cells and serially diluted compounds. Each plate included 6 wells of infected untreated cells and 6 wells of cells containing 5 μM Rupintrivir that served as 0% and 100% virus inhibition control, respectively. Following the infection, test plates were incubated for 96 h in a tissue culture incubator set to 37° C./5% CO2. Following incubation, the H1-HeLa cells were removed from incubation and allowed to equilibrate to 25° C. Cell viability was determined by removing 100 μL of culture medium and adding 100 μL of Cell-Titer Glo viability reagent. The mixtures were incubated on a shaker for 10 minutes at 25° C., and the luminescence signal was quantified on an Envision luminescence plate reader.

HRV14 = HRV14 HeLa EC50; format: cell-based, human rhinovirus; details: Human rhinovirus sp., HRV14; H1-HeLa cells, 96 h, 37° C.
Description: as §2, with “HRV14” for “HRV1a”

SMILES	EC50 (RSV strain A2)	EC50 (RSV A2)	EC50 (HRV16)	CC50 (HEp-2 cytotoxicity assay)	CC50 (MT-4 cytotoxicity assay)	half-life at 2 μM [1]	half-life at 2 μM (in vitro)	EC50 (HRV1a)	EC50 (HRV14)
CCOC(=O)[C@H](C)N[P@](=O)(OC[C@@]1(C#N)O[C@@H](c2ccc3c(N)ncnn23)[C@H](O)[C@@H]1O)Oc1ccccc1 [Compound 8, ethyl ((S)-(((2R,3S,4R,5S)-5-(4-aminopyrrolo[2,1-f][1,2,4]triazin-7-yl)-2-cyano-3,4-dihydroxytetrahydrofuran-2-yl)methoxy)(phenoxy)phosphoryl)-L-alaninate]	91 nM	932 nM	678 nM	> 100 µM	28.3 µM	2 min	361 min	–	–
CC(C)OC(=O)[C@H](C)N[P@](=O)(OC[C@@]1(C#N)O[C@@H](c2ccc3c(N)ncnn23)[C@H](O)[C@@H]1O)Oc1ccccc1 [Compound 4, (S)-isopropyl 2-(((S)-(((2R,3S,4R,5S)-5-(4-aminopyrrolo[2,1-f][1,2,4]triazin-7-yl)-2-cyano-3,4-dihydroxytetrahydrofuran-2-yl)methoxy)(phenoxy)phosphoryl)amino)propanoate]	342 nM	879 nM	965 nM	–	–	–	–	–	–
C[C@H](NP(=O)(OC[C@@]1(C#N)O[C@@H](c2ccc3c(N)ncnn23)[C@H](O)[C@@H]1O)Oc1ccccc1)C(=O)OC1CCCCC1 (stereo partly drawn) [Formula Ia, (2S)-cyclohexyl 2-(((((2R,3S,4R,5S)-5-(4-aminopyrrolo[2,1-f][1,2,4]triazin-7-yl)-2-cyano-3,4-dihydroxytetrahydrofuran-2-yl)methoxy)(phenoxy)phosphoryl)amino)propanoate]	96 nM	76 nM	510 nM	–	–	–	–	–	–
C[C@H](N[P@@](=O)(OC[C@@]1(C#N)O[C@@H](c2ccc3c(N)ncnn23)[C@H](O)[C@@H]1O)Oc1ccccc1)C(=O)OC1CCCCC1 (single isomer, unassigned) [Formula Ib]	2740 nM	630 nM	654 nM	–	–	–	–	–	–
CC(C)OC(=O)[C@H](C)NP(=O)(OC[C@@]1(C#N)O[C@@H](c2ccc3c(N)ncnn23)[C@H](O)[C@@H]1O)Oc1ccccc1 (stereo partly drawn) [Compound 3, isopropyl ((((2R,3S,4R,5S)-5-(4-aminopyrrolo[2,1-f][1,2,4]triazin-7-yl)-2-cyano-3,4-dihydroxytetrahydrofuran-2-yl)methoxy)(phenoxy)phosphoryl)-L-alaninate]	463 nM	1150 nM	1420 nM	–	–	–	–	735 nM	1810 nM
CCC(CC)OC(=O)[C@H](C)NP(=O)(OC[C@@]1(C#N)O[C@@H](c2ccc3c(N)ncnn23)[C@H](O)[C@@H]1O)Oc1ccccc1 (stereo partly drawn) [Compound 5, (2S)-pentan-3-yl 2-(((((2R,3S,4R,5S)-5-(4-aminopyrrolo[2,1-f][1,2,4]triazin-7-yl)-2-cyano-3,4-dihydroxytetrahydrofuran-2-yl)methoxy)(phenoxy)phosphoryl)amino)propanoate]	1740 nM	1240 nM	3130 nM	–	–	–	–	1620 nM	3430 nM
